From article PMC3522636, “4F Decreases IRF5 Expression and Activation in Hearts of Tight Skin Mice” (PLoS ONE, 2012)
“Also recorded” adds a separate entry of the source.

Assays:
[1] = tested on: Human umbilical vein endothelial cells; assay: Cellular uptake of B-4F in endothelial cells; assay type: cell-based; conditions: vs unlabeled 4F, confocal; for increase of fluorescence intensity in EC: 4 hours, fluorescein-streptavidin
Description: Human umbilical vein endothelial cells (EC; Lonza, Walkersville, MD) were incubated in EGM complete media containing 4F or B-4F (10 and 50 µg/ml) for 4 hours. The EC cultures were washed with PBS, fixed in PBS containing 1% paraformaldehyde, and permeabilized with PBS containing 0.5% Triton-X. The permeabilized sections were incubated with fluorescein-conjugated streptavidin (1 µg/ml) for 30 minutes followed by 3 PBS washes. The fixed and fluorescently labeled slides were mounted in aqueous mounting media and sections inspected and analyzed by confocal microscopy.

IRF5 = target: T1, IRF5 (Homo sapiens, UniProt Q13568); assay: B-4F pulldown assay from EC cytosolic fractions spiked with recombinant IRF5; assay type: binding; conditions: immunoblot
T1 construct: purchased GenScript USA Inc
T1 sequence (Q13568 1-498): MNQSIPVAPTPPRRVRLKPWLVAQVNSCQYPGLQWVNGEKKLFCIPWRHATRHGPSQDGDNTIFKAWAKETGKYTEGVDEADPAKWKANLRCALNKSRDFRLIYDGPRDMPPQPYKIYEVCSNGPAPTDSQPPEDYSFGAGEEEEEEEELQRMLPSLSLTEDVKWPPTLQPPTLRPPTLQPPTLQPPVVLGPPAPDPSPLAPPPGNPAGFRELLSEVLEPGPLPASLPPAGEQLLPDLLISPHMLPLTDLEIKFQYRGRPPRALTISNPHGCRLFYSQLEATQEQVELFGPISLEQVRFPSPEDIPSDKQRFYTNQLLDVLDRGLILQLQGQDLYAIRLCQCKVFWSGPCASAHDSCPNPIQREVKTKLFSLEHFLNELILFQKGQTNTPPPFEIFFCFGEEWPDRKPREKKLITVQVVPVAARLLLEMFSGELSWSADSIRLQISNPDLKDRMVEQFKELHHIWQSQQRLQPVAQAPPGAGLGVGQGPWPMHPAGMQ
Description: B-4F Pulldown Assays: To determine whether 4F interacts with IRF5 in the presence of cystosol proteins, we performed 4F pulldown assays on EC cytosolic fractions spiked with recombinant IRF5. Briefly, cytosolic EC fractions were precleared with SA agarose beads (Cat#15942-050, Invitrogen) for 30 minutes at 4°C. IRF5 interactions were enhanced by adding recombinant IRF5 (2% wt/vol, Genscript USA Inc.) to the endothelial cytosolic fractions. 4F and B-4F were added to the cytosolic fractions and incubated for 3 hours at 4°C. SA agarose beads were added and the samples mixed end-over-end overnight at 4°C. The following day the SA agarose beads were isolated by centrifugation. The proteins associated with B-4F were released from the beads with Laemmli buffer and separated by SDS-PAGE (4–15%) as above. IRF5 levels in the pulldown samples were determined by autoradiography of immunoblots as above.

[2] = target: biotin-labeled 4F (biotin-labeled …-NH2); assay: pull-down; B-4F added to precleared endothelial cell cytosolic fractions spiked with recombinant IRF5, 3 h at 4°C; SA agarose beads overnight at 4°C; immunoblot for IRF5

| Substance | increase of fluorescence intensity in EC ([1]; B-4F 10 µg/ml) | increase of fluorescence intensity in EC ([1]; B-4F 50 µg/ml, p≤0.05) | uptake into EC (in words) ([1]; B-4F 10 and 50 µg/ml, 4 hours (method), 3 hours (Figure 6)) | association with IRF5 in presence of EC cytosolic proteins (in words) (IRF5; 3 hours at 4°C, SA agarose beads overnight at 4°C) | IRF5 bound to the B-4F precipitate relative to control (IRF5; EC lysates with recombinant IRF5 (10 µg/mL), SA-agarose pulldown, lane 2 vs control lane 1) | fold IRF5 in the B-4F precipitate over control lane 1 [2] |
| --- | --- | --- | --- | --- | --- | --- |
| biotin-labeled DWFKAFYDKVAEKFKEAF-NH2 [B-4F, biotin-labeled 4F, synthesized with one more cycle with FMOC-Lys(biotinyl-ε-aminocaproyl)-OH] | approximately 30% | 3.6 fold | greater fluorescence in EC cultures incubated with 10 and 50 µg/ml of B-4F than in EC cultures incubated with equal concentrations of unlabeled 4F; also recorded: B-4F content is increased in ECs incubated with 10 and 50 µg/ml | associates with IRF5 even in the presence of EC cytosolic proteins | 2.5 fold | – |
| recombinant IRF5 (from UniProt Q13568 1-498) (natural protein) | – | – | – | – | – | 2.5 fold |
